From the supplement of paper PMC10627819

Key:
[1] = system: B. subtilis 168; assay: fitness (endpoint OD595 vs no drug) (fraction); higher = more growth
Outline: (§1)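 Fitness was measured as bacterial growth in 384-well plates inoculated at OD595 0.01 (30 µl, or 55 µl for S. pneumoniae). Media were TSB, LB Lennox or CY, at 37 °C. OD595 was read every 30 min for 14 h and background-subtracted against the first reading. Fitness is OD595 at the transition into stationary phase divided by the robust mean of no-drug control wells, capped at 1.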

[2] = system: S. pneumoniae D39V; assay: as above
Outline: as §1

[3] = system: B. subtilis 168; assay: Bliss interaction score (quartile over a dose matrix) (fitness difference); higher = more antagonism (negative = synergy)
Outline: (§2)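 The Bliss score subtracts expected fitness, the product of the single-drug fitness values, from observed fitness. Fitness is plate-normalised OD595 at entry into stationary phase, relative to the robust no-drug mean and capped at 1, with single-drug fitness inferred from combinations. Summaries are quartiles over technical, biological and donor/recipient replicates.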

[4] = system: S. aureus Newman; assay: as above
Outline: as §2

[5] = system: S. pneumoniae D39V; assay: as above
Outline: as §2

[6] = system: S. aureus DSM 20231; assay: as above
Outline: as §2
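Throughout, for Bliss interaction score (quartile over a dose matrix): first quartile when negative (synergy) and third quartile when positive (antagonism).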

C[C@H]1c2cccc(O)c2C(=O)C2=C(O)[C@]3(O)C(=O)C(C(N)=O)=C(O)[C@@H](N(C)C)[C@@H]3[C@@H](O)[C@@H]21 [Doxycycline] + Cc1cc(NS(=O)(=O)c2ccc(N)cc2)no1 [Sulfamethoxazol]
one replicate
Conditions	fitness
[1], first compound 0.02 µg/mL, partner 0.5 µg/mL	0.829
[1], first compound 0.04 µg/mL, partner 0.5 µg/mL	0.72
[1], first compound 0.08 µg/mL, partner 0.5 µg/mL	0.456
[2], first compound 0.003875 µg/mL, partner 1 µg/mL	≥ 1
[2], first compound 0.003875 µg/mL, partner 2 µg/mL	≥ 1
[2], first compound 0.003875 µg/mL, partner 4 µg/mL	≥ 1
[2], first compound 0.00775 µg/mL, partner 1 µg/mL	0.961
[2], first compound 0.00775 µg/mL, partner 2 µg/mL	0.967
[2], first compound 0.00775 µg/mL, partner 4 µg/mL	0.963

fitness
Conditions	first compound 0.0155 µg/mL	first compound 0.02 µg/mL	first compound 0.031 µg/mL	first compound 0.04 µg/mL	first compound 0.062 µg/mL	first compound 0.08 µg/mL
[1], partner 1 µg/mL	–	0.856	–	0.718	–	0.485
[1], partner 2 µg/mL	–	0.818	–	0.702	–	0.424
[1], partner 4 µg/mL	–	0.876	–	0.76	–	0.528
[2], partner 1 µg/mL	0.929	–	0.848	–	0.755	–
[2], partner 2 µg/mL	0.939	–	0.859	–	0.779	–
[2], partner 4 µg/mL	0.897	–	0.81	–	0.77	–

Conditions	Bliss interaction score
[3]	-0.0451
[4]	-0.0242
[5]	-0.0349
[6]	-0.0457

C[C@H]1c2cccc(O)c2C(=O)C2=C(O)[C@]3(O)C(=O)C(C(N)=O)=C(O)[C@@H](N(C)C)[C@@H]3[C@@H](O)[C@@H]21 [Doxycycline] + CCN(CC)CCOC(=O)c1ccc(N)cc1 [Procaine]
fitness
Conditions	partner 85.5 µg/mL	partner 171 µg/mL	partner 342 µg/mL
[1], first compound 0.02 µg/mL	0.892	0.855	0.844
[1], first compound 0.04 µg/mL	0.742	0.707	0.7
[1], first compound 0.08 µg/mL	–	0.363	–
[2], first compound 0.0155 µg/mL	0.972	0.95	0.955
[2], first compound 0.031 µg/mL	0.862	0.835	0.849
[2], first compound 0.062 µg/mL	0.77	0.753	0.744

fitness, [2], one replicate
Conditions	partner 85.5 µg/mL	partner 171 µg/mL	partner 342 µg/mL
first compound 0.003875 µg/mL	≥ 1	≥ 1	≥ 1
first compound 0.00775 µg/mL	≥ 1	0.971	0.994

Conditions	Bliss interaction score
[3]	-0.0366
[4]	0.0409
[5]	0.0386
[6]	-0.0922

CN(C)c1cc(NC(=O)CNC(C)(C)C)c(O)c2c1C[C@H]1C[C@H]3[C@H](N(C)C)C(O)=C(C(N)=O)C(=O)[C@@]3(O)C(O)=C1C2=O [Tigecycline] + COc1cc(Cc2cnc(N)nc2N)cc(OC)c1OC [Trimethoprim]
fitness, [1], one replicate
Conditions	partner 0.1 µg/mL	partner 0.125 µg/mL	partner 0.2 µg/mL	partner 0.25 µg/mL	partner 0.4 µg/mL	partner 0.5 µg/mL	partner 1 µg/mL	partner 2 µg/mL
first compound 0.039 µg/mL	0.879	0.739	0.77	–	0.58	–	0.505	0.438
first compound 0.078 µg/mL	0.896	0.727	0.754	–	0.577	–	0.455	0.408
first compound 0.125 µg/mL	–	0.898	–	0.749	–	0.694	–	–
first compound 0.156 µg/mL	0.883	0.758	0.814	–	0.546	–	0.402	0.357
first compound 0.25 µg/mL	–	0.798	–	0.546	–	0.55	–	–
first compound 0.5 µg/mL	–	0.87	–	0.695	–	0.633	–	–

fitness, [1]
Conditions	first compound 0.039 µg/mL	first compound 0.078 µg/mL	first compound 0.156 µg/mL
partner 0.25 µg/mL	0.657	0.653	0.677
partner 0.5 µg/mL	0.567	0.532	0.529

Conditions	Bliss interaction score
[3]	0.121
[4]	-0.0503
[5]	-0.119
[6]	-0.0664

CO/N=C(\C(=O)N[C@@H]1C(=O)N2C(C(=O)O)=C(COC(N)=O)CS[C@H]12)c1ccco1 [Cefuroxime] + CC(=O)NC[C@H]1CN(c2ccc(N3CCOCC3)c(F)c2)C(=O)O1 [Linezolid]
fitness, [1]
Conditions	first compound 0.04875 µg/mL	first compound 0.0975 µg/mL	first compound 0.195 µg/mL
partner 0.125 µg/mL	0.532	0.526	0.423
partner 0.25 µg/mL	0.293	0.261	0.0774
partner 0.5 µg/mL	0.103	0.0891	0.0749

fitness, [1], one replicate
Conditions	first compound 0.195 µg/mL	first compound 0.39 µg/mL	first compound 0.78 µg/mL	first compound 1.562 µg/mL	first compound 3.125 µg/mL	first compound 6.25 µg/mL
partner 0.0625 µg/mL	0.379	0.312	0.235	–	–	–
partner 0.125 µg/mL	–	0.227	0.14	0.331	0.384	0.308
partner 0.25 µg/mL	–	0.0397	0.0222	0.0445	0.0527	0.0345
partner 0.5 µg/mL	–	–	–	0.0242	0.0246	0.0074

Conditions	Bliss interaction score
[3]	0.139
[4]	0.0749
[5]	0.079
[6]	-0.208
